Laboratory results as given in patent publication US10364256B2 (GlaxoSmithKline Intellectual Property Development Limited, priority 2015, dated 2019).

Experiments:
[1] = test system: NQO1 specific enzyme activity in BEAS-2B cells (marker for NRF2 activation); assay: BEAS-2B NQO1 MTT Assay; assay type: cell-based; settings: Homo sapiens, compound incubated 48 hours, read-out: EC50 (NQO1 specific enzyme activity induction)
How it was run: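 NQO1 specific activity induction is derived from the rate of MTT reduction (ΔOD/min, 570 nm, 30 min kinetic read) in crude lysates of BEAS-2B cells exposed to compound for 48 h. A 3-parameter fit gives EC50, reported as pEC50; part of each lysate goes to Cell Titer Glo.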

[2] = biological target: T1, full length Keap1 protein / full length NRF2 protein (Homo sapiens, UniProt Q14145); assay: NRF2-Keap1 TR-FRET Assay; assay type: binding; settings: 25 nM Keap1-FlagHis and 50 nM biotin-NRF2 added
T1 construct: full length NRF2 protein and full length Keap1 protein (Keap1 exists a dimer) are used; His
T1 sequence (Q14145 whole entry): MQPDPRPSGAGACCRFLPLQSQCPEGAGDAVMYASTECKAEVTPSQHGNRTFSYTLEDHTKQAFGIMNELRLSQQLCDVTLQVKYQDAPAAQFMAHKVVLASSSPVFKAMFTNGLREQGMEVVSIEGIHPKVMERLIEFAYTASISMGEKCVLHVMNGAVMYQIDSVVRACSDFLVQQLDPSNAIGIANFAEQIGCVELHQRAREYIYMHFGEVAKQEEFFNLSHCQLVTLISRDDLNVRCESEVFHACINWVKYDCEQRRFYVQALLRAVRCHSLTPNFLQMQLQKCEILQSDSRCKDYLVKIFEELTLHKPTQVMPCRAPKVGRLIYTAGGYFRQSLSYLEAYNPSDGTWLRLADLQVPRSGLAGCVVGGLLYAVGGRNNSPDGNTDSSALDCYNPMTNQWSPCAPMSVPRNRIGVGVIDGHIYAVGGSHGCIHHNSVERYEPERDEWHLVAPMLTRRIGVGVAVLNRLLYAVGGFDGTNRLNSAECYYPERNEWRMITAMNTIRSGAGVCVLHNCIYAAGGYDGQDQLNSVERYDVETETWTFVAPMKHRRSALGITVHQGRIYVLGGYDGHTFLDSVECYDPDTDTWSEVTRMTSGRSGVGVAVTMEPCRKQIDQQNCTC
How it was run: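 Displacement of biotinylated full-length NRF2 from full-length Keap1 read by Eu/APC TR-FRET (665/615 nm) after 1 h detection at RT. Compound, 3-fold series, first incubated with Keap1 at 37 °C for 2.25 h, NRF2 then added at 4 °C for 1.25 h; pIC50 by four-parameter equation.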

SMILES	EC50 [1]	IC50 [2]
Cn1cc([C@H]2C[C@@H]2c2c(C(=O)O)cnn2-c2cccc(-c3cccc(C(=O)N4CCCCC4)c3F)c2)nn1 (racemic) [Example 258, 1-(2′-Fluoro-3′-(piperidine-1-carbonyl)-[1,1′-biphenyl]-3-yl)-5-(trans-2-(1-methyl-1H-1,2,3-triazol-4-yl)cyclopropyl)-1H-pyrazole-4-carboxylic Acid]	100 to 1000 nM	10 to 100 nM
CCOC[C@@H]1CCCN1C(=O)c1cccc(-c2cccc(-n3ncc(C(=O)O)c3[C@@H]3C[C@H]3c3cn(C)nn3)c2)c1F [Example 267]	100 to 1000 nM	10 to 100 nM
CC(Oc1cccc(-c2cccc(-n3ncc(C(=O)O)c3[C@@H]3C[C@H]3c3cn(C)nn3)n2)c1)C1CCCCC1 (relative stereo) [Example 249, 1-(6-(3-(1-Cyclohexylethoxy)phenyl)pyridin-2-yl)-5-(trans-2-(1-methyl-1H-1,2,3-triazol-4-yl)cyclopropyl)-1H-pyrazole-4-carboxylic Acid]	1 to 10 nM	10 to 100 nM
CCC1Cc2ccccc2CN(Cc2cccc(-c3cccc(-n4ncc(C(=O)O)c4[C@@H]4C[C@H]4c4cn(C)nn4)c3)c2)C1 (relative stereo) [Example 252, 1-(3′-((4-Ethyl-4,5-dihydro-1H-benzo[c]azepin-2(3H)-yl)methyl)-[1,1′-biphenyl]-3-yl)-5-(trans-2-(1-methyl-1H-1,2,3-triazol-4-yl)cyclopropyl)-1H-pyrazole-4-carboxylic Acid]	100 to 1000 nM	100 to 1000 nM
CCC[C@@H]1CCCCN1C(=O)c1cccc(-c2cccc(-n3ncc(C(=O)O)c3CCc3cn(C)nn3)c2)c1F [Example 55, (R)-1-(2′-Fluoro-3′-(2-propylpiperidine-1-carbonyl)-[1,1′-biphenyl]-3-yl)-5-(2-(1-methyl-1H-1,2,3-triazol-4-yl)ethyl)-1H-pyrazole-4-carboxylic Acid]	1000 to 10000 nM	10 to 100 nM
Cn1cc([C@H]2C[C@@H]2c2c(C(=O)O)cnn2-c2cccc(-c3cccc(C(=O)N4CCCC(C)(C)C4)c3F)c2)nn1 (racemic) [Example 259, 1-(2′-Fluoro-3′-(3,3-dimethylpiperidine-1-carbonyl)-[1,1′-biphenyl]-3-yl)-5-(trans-2-(1-methyl-1H-1,2,3-triazol-4-yl)cyclopropyl)-1H-pyrazole-4-carboxylic Acid]	100 to 1000 nM	10 to 100 nM
